Laboratory results reported in PubChem BioAssay AID248 (DTP/NCI, 2004).
Where “and” joins values, the source holds several entries; their conditions need not be identical. Identical values can stand only once. Toxic doses and inconclusive results are not listed.

System: L1210 leukemia ip in BDF1 mice, survival T/C
Assay: NCI In Vivo Anticancer Drug Screen. Data for tumor model L1210 Leukemia (intraperitoneal) in B6D2F1 (BDF1) mice
Conditions: endpoint: mean survival time, higher = longer survival
How it was run: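 Mice bearing the transplanted tumor received compound or vehicle. Survival of the treated group was divided by that of the vehicle-treated control group to give the ratio.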

## O=C(Nc1ccc(NC2=NCCN2)cc1)c1ccc(C(=O)Nc2ccc(NC3=NCCN3)cc2)cc1
dose: 0.25 mg/kg/injection, schedule: Q01DX001 (ip), vehicle: saline
  T/C: 109 % of control
dose: 0.3 mg/kg/injection, schedule: Q#A X Z (ip), vehicle: saline
  T/C: 116 % of control
dose: 0.45 mg/kg/injection, schedule: Q#A X Z (ip), vehicle: saline
  T/C: 122 % of control
dose: 0.5 mg/kg/injection, schedule: Q01DX001 (ip), vehicle: saline
  T/C: 110 % of control
dose: 0.5 mg/kg/injection, schedule: Q07DX Z (ip), vehicle: saline
  T/C: 97 % of control
dose: 0.63 mg/kg/injection, schedule: Q02DX004 (im), vehicle: saline
  T/C: 104 % of control
dose: 0.9 mg/kg/injection, schedule: Q01DX Z (ip), vehicle: methylcellulose (MC)
  T/C: 104 % of control
dose: 0.94 mg/kg/injection, schedule: Q01DX Z (ip), vehicle: saline
  T/C: 103 % of control
dose: 1.0 mg/kg/injection, schedule: Q01DX001 (ip), vehicle: saline
  T/C: 109 % of control
dose: 1.0 mg/kg/injection, schedule: Q07DX Z (ip), vehicle: saline
  T/C: 106 % of control
dose: 1.0 mg/kg/injection, schedule: Q#A X Z (ip), vehicle: saline
  T/C: 180 % of control
dose: 1.25 mg/kg/injection, schedule: Q01DX Z (ip), vehicle: methylcellulose (MC)
  T/C: 109 % of control
dose: 1.25 mg/kg/injection, schedule: Q02DX004 (im), vehicle: saline
  T/C: 101 % of control
dose: 1.3 mg/kg/injection, schedule: Q01DX Z (ip), vehicle: saline
  T/C: 120 % of control
dose: 1.3 mg/kg/injection, schedule: Q01DX Z (sc), vehicle: saline
  T/C: 93 % of control
dose: 1.5 mg/kg/injection, schedule: Q#A X Z (ip), vehicle: saline
  T/C: 191 % of control
dose: 1.8 mg/kg/injection, schedule: Q01DX Z (ip), vehicle: methylcellulose (MC)
  T/C: 116 % of control
dose: 1.88 mg/kg/injection, schedule: Q01DX Z (ip), vehicle: saline
  T/C: 200 % of control
dose: 2.0 mg/kg/injection, schedule: Q01DX001 (ip), vehicle: saline
  T/C: 113 % of control
dose: 2.0 mg/kg/injection, schedule: Q01DX Z (ip), vehicle: saline
  T/C: 177 % of control
dose: 2.0 mg/kg/injection, schedule: Q01DX Z (sc), vehicle: saline
  T/C: 101 % of control
dose: 2.0 mg/kg/injection, schedule: Q07DX Z (ip), vehicle: saline
  T/C: 103 % of control
dose: 2.5 mg/kg/injection, schedule: Q01DX Z (ip), vehicle: methylcellulose (MC)
  T/C: 150 % of control
dose: 2.5 mg/kg/injection, schedule: Q02DX004 (im), vehicle: saline
  T/C: 108 % of control
dose: 3.0 mg/kg/injection, schedule: Q01DX Z (ip), vehicle: saline
  T/C: 239 % of control
dose: 3.0 mg/kg/injection, schedule: Q01DX Z (sc), vehicle: saline
  T/C: 113 % of control
dose: 3.75 mg/kg/injection, schedule: Q01DX Z (ip), vehicle: saline
  T/C: 264 % of control
dose: 4.0 mg/kg/injection, schedule: Q01DX001 (ip), vehicle: saline
  T/C: 121 % of control
dose: 4.0 mg/kg/injection, schedule: Q03DX Z (ip), vehicle: saline
  T/C: 121 % of control
dose: 5.0 mg/kg/injection, schedule: Q01DX Z (ip), vehicle: methylcellulose (MC)
  T/C: 293 % of control
dose: 5.0 mg/kg/injection, schedule: Q02DX004 (im), vehicle: saline
  T/C: 106 % of control
dose: 6.0 mg/kg/injection, schedule: Q03DX Z (ip), vehicle: saline
  T/C: 161 % of control
dose: 6.0 mg/kg/injection, schedule: Q07DX Z (ip), vehicle: saline
  T/C: 198 % of control
dose: 7.5 mg/kg/injection, schedule: Q01DX Z (ip), vehicle: methylcellulose (MC)
  T/C: 268 % of control
dose: 7.5 mg/kg/injection, schedule: Q01DX Z (ip), vehicle: saline
  T/C: 265 % of control
dose: 8.0 mg/kg/injection, schedule: Q#A X Z (ip), vehicle: saline
  T/C: 110 % of control
dose: 9.0 mg/kg/injection, schedule: Q07DX Z (ip), vehicle: saline
  T/C: 154 % of control and 193 % of control
dose: 10.0 mg/kg/injection, schedule: Q01DX001 (im), vehicle: steriod suspending solution
  T/C: 103 % of control
dose: 10.0 mg/kg/injection, schedule: Q01DX010 (sc), vehicle: olive oil, sesame oil, peanut oil
  T/C: 101 % of control and 118 % of control
dose: 10.0 mg/kg/injection, schedule: Q01DX Z (ip), vehicle: methylcellulose (MC)
  T/C: 200 % of control
dose: 10.0 mg/kg/injection, schedule: Q02DX004 (im), vehicle: olive oil, sesame oil, peanut oil
  T/C: 153 % of control
dose: 12.0 mg/kg/injection, schedule: Q#A X Z (ip), vehicle: saline
  T/C: 112 % of control
dose: 14.0 mg/kg/injection, schedule: Q07DX Z (ip), vehicle: saline
  T/C: 152 % of control
dose: 15.0 mg/kg/injection, schedule: Q01DX Z (ip), vehicle: methylcellulose (MC)
  T/C: 184 % of control
dose: 15.0 mg/kg/injection, schedule: Q01DX Z (ip), vehicle: saline
  T/C: 161 % of control
dose: 16.0 mg/kg/injection, schedule: Q01DX001 (ip), vehicle: saline
  T/C: 155 % of control
dose: 16.0 mg/kg/injection, schedule: Q01DX Z (sc), vehicle: saline
  T/C: 152 % of control
dose: 18.0 mg/kg/injection, schedule: Q01DX001 (ip), vehicle: other
  T/C: 172 % of control
dose: 18.0 mg/kg/injection, schedule: Q#A X Z (ip), vehicle: saline
  T/C: 109 % of control
dose: 20.0 mg/kg/injection, schedule: Q01DX010 (sc), vehicle: olive oil, sesame oil, peanut oil
  T/C: 87 % of control
dose: 20.0 mg/kg/injection, schedule: Q02DX004 (im), vehicle: olive oil, sesame oil, peanut oil
  T/C: 175 % of control and 196 % of control
dose: 21.0 mg/kg/injection, schedule: Q07DX Z (ip), vehicle: saline
  T/C: 184 % of control
dose: 24.0 mg/kg/injection, schedule: Q01DX007 (iv), vehicle: saline
  T/C: 174 % of control
dose: 24.0 mg/kg/injection, schedule: Q01DX Z (ip), vehicle: saline
  T/C: 120 % of control
dose: 24.0 mg/kg/injection, schedule: Q01DX Z (sc), vehicle: saline
  T/C: 113 % of control
dose: 26.0 mg/kg/injection, schedule: Q01DX001 (ip), vehicle: carboxymethylcellulose (CMC)
  T/C: 210 % of control
dose: 26.0 mg/kg/injection, schedule: Q01DX001 (ip), vehicle: other
  T/C: 154 % of control and 200 % of control
dose: 30.0 mg/kg/injection, schedule: Q01DX Z (ip), vehicle: saline
  T/C: 114 % of control
dose: 36.0 mg/kg/injection, schedule: Q01DX007 (iv), vehicle: saline
  T/C: 210 % of control
dose: 36.0 mg/kg/injection, schedule: Q01DX Z (ip), vehicle: saline
  T/C: 96 % of control
dose: 40.0 mg/kg/injection, schedule: Q01DX001 (im), vehicle: steriod suspending solution
  T/C: 176 % of control
dose: 40.0 mg/kg/injection, schedule: Q01DX001 (ip), vehicle: carboxymethylcellulose (CMC)
  T/C: 194 % of control and 206 % of control
dose: 40.0 mg/kg/injection, schedule: Q01DX001 (ip), vehicle: other
  T/C: 198 % of control and 201 % of control
dose: 40.0 mg/kg/injection, schedule: Q02DX004 (im), vehicle: olive oil, sesame oil, peanut oil
  T/C: 109 % of control and 110 % of control
dose: 54.0 mg/kg/injection, schedule: Q01DX007 (iv), vehicle: saline
  T/C: 233 % of control
dose: 60.0 mg/kg/injection, schedule: Q01DX001 (ip), vehicle: carboxymethylcellulose (CMC)
  T/C: 251 % of control and 296 % of control
dose: 60.0 mg/kg/injection, schedule: Q01DX001 (ip), vehicle: other
  T/C: 224 % of control and 297 % of control
dose: 60.0 mg/kg/injection, schedule: Q01DX Z (ip), vehicle: saline
  T/C: 103 % of control
dose: 64.0 mg/kg/injection, schedule: Q01DX010 (oral), vehicle: saline
  T/C: 108 % of control
dose: 72.0 mg/kg/injection, schedule: Q01DX001 (ip), vehicle: saline
  T/C: 215 % of control and 232 % of control and 264 % of control
dose: 75.0 mg/kg/injection, schedule: Q01DX Z (oral), vehicle: saline
  T/C: 95 % of control
dose: 80.0 mg/kg/injection, schedule: Q01DX001 (im), vehicle: saline
  T/C: 213 % of control
dose: 80.0 mg/kg/injection, schedule: Q01DX001 (im), vehicle: steriod suspending solution
  T/C: 211 % of control
dose: 80.0 mg/kg/injection, schedule: Q02DX004 (im), vehicle: olive oil, sesame oil, peanut oil
  T/C: 87 % of control
dose: 81.0 mg/kg/injection, schedule: Q01DX007 (iv), vehicle: saline
  T/C: 97 % of control
dose: 81.0 mg/kg/injection, schedule: Q01DX Z (ip), vehicle: saline
  T/C: 122 % of control
dose: 90.0 mg/kg/injection, schedule: Q01DX001 (ip), vehicle: carboxymethylcellulose (CMC)
  T/C: 244 % of control
dose: 90.0 mg/kg/injection, schedule: Q01DX001 (ip), vehicle: other
  T/C: 265 % of control
dose: 96.0 mg/kg/injection, schedule: Q01DX010 (oral), vehicle: saline
  T/C: 111 % of control
dose: 144.0 mg/kg/injection, schedule: Q01DX010 (oral), vehicle: saline
  T/C: 97 % of control and 119 % of control
dose: 150.0 mg/kg/injection, schedule: Q01DX Z (oral), vehicle: saline
  T/C: 101 % of control
dose: 160.0 mg/kg/injection, schedule: Q01DX001 (im), vehicle: saline
  T/C: 243 % of control
dose: 320.0 mg/kg/injection, schedule: Q01DX001 (im), vehicle: saline
  T/C: 271 % of control
dose: 576.0 mg/kg/injection, schedule: Q01DX001 (ip), vehicle: saline
  T/C: 110 % of control
dose: 576.0 mg/kg/injection, schedule: Q01DX010 (oral), vehicle: saline
  T/C: 116 % of control
dose: 600.0 mg/kg/injection, schedule: Q01DX Z (oral), vehicle: saline
  T/C: 122 % of control
